Measurements published in article PMC8370991, “Structural basis for the inhibition of HTLV-1 integration inferred from cryo-EM deltaretroviral intasome structures” (Nature Communications, 2021).
Like-named read-outs stand apart in the source and are kept apart here.

Target: T1, recombinant HTLV-1 IN (Human T-cell leukemia virus 1, UniProt P03362)
T1 construct: made in house
Assay: In vitro integration strand transfer assay with HTLV-1 IN
Format: biochemical
Conditions: for HTLV-1 IN strand transfer activity (No drug = 100): INSTI at 634 nM
Experimental: We used in vitro strand transfer assays to screen this small molecule library for its ability to inhibit recombinant HTLV-1 IN. The enzyme was incubated with an oligonucleotide vDNA donor mimic in the presence or absence of INSTIs and was allowed to react with a supercoiled plasmid mimicking target DNA. During the screening, the concentration of each compound was adjusted to 634 nM to provide optimal resolution of efficacy between well- and under-performing compounds.
The donor vDNA that mimics the 3′-processed LTR of HTLV-1 or STLV-1 DNA was preassembled by annealing the U5_S20Q_UP and U5_S20Q_B or MarB43_U5_S30UP or MarB43_U5_S30B oligonucleotides, respectively (Supplementary Table 4) in 100 mM Tris pH 7.4, 400 mM NaCl. For HTLV-1 IN, strand transfer reactions were conducted in a solution of 24.3 mM PIPES pH 6.0, 138.4 mM NaCl, 16.6 mM MgCl2, 5.8 μM ZnCl2, 12.7 mM DTT, 0.53 μM donor DNA and 4 μg of HTLV-1 IN[9],[39]. In brief, the reaction was incubated at RT for 15 min in the presence of an INSTI or dimethyl sulfoxide (DMSO) control and the reaction was started by the addition of 300 ng of pGEM-9Zf(-) supercoiled plasmid DNA. The reaction was incubated for 1 h at 37 °C and stopped by adding 0.5% SDS and 25 mM ethylenediaminetetraacetic acid (EDTA), pH 8.0.
Proteins were degraded by incubation with 30 μg of proteinase K (Roche) at 37 °C for 1 h. DNA was precipitated at −20 °C overnight in the presence of ethanol supplemented with 20 μg of glycogen and then resuspended in 1.5× agarose loading dye. The DNA products were separated by electrophoresis through 1.5% agarose gel and stained with ethidium bromide and imaged using the BioRad GelDox XR + imager. The data were analysed and the IC50 calculated as previously described. In brief, the DNA band that corresponds to the concerted integration product was quantified by densitometry in ImageLab 4.1 (Bio-Rad). All experiments were done in triplicate. Quantified data points were fitted to dose–response curves in Prism 9. The cumulative standard deviation for each drug was calculated as an average of the upper limit and lower limit values: Lowerlimit=IC50/10^logSE(IC50) Upperlimit=IC50×10^logSE(IC50)

[1] = Replicate 1, read-out: HTLV-1 IN strand transfer IC50
[2] = Replicate 2, read-out: HTLV-1 IN strand transfer IC50
[3] = Replicate 3, read-out: HTLV-1 IN strand transfer IC50
[4] = integrase strand-transfer drug titration, n = 3, read-out: HTLV-1 IC50 ± stdev

T1 sequence (P03362 1168-1462): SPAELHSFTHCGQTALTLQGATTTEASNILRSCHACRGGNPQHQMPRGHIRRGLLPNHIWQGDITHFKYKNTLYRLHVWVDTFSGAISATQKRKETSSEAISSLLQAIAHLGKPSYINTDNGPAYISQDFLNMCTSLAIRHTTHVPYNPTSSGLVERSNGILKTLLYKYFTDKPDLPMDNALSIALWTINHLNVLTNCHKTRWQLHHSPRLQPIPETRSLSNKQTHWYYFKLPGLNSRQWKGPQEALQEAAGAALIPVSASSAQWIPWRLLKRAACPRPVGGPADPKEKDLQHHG

Structure (SMILES)	HTLV-1 IN strand transfer activity (No drug = 100) (Replicate 1) [%]	HTLV-1 IN strand transfer activity (No drug = 100) (Replicate 2) [%]	HTLV-1 IN strand transfer activity (No drug = 100) (Replicate 3) [%]	IC50 [1] [nM]	IC50 [2] [nM]	IC50 [3] [nM]	IC50 [4] [nM]	IC50 compared with that of RAL (dose-response strand transfer assays)	inhibition of HTLV-1 IN in the screen compared with RAL (each compound at 634 nM)
CN(C)C(=O)c1nc(O)c(O)c2c1CCN(Cc1ccc(F)c(Cl)c1)C2=O [XZ235, 6-(3-chloro-4-fluorobenzyl)-3,4-dihydroxy-N,N-dimethyl-5-oxo-5,6,7,8-tetrahydro-2,6-naphthyridine-1-carboxamide]	50.5732	55.8637	62.5799						
O=C(NCc1ccc(F)cc1F)c1c(NCCO)c2cc(CCCCCO)cnc2n(O)c1=O [XZ439, N-(2,4-difluorobenzyl)-1-hydroxy-4-((2-hydroxyethyl)amino)-6-(5-hydroxypentyl)-2-oxo-1,2-dihydro-1,8-naphthyridine-3-carboxamide]	27.6089	29.3463	25.7676	270	239	232			
O=C1c2c(ccc(O)c2O)CN1Cc1ccc(F)c(Cl)c1 [XZ90, 2-(3-chloro-4-fluorobenzyl)-6,7-dihydroxyisoindolin-1-one]	47.6981	83.7072	92.5665						
O=C(NNC(=O)c1cccc(O)c1O)c1ccccc1O [XZ45, 2,3-dihydroxy-N'-(2-hydroxybenzoyl)benzohydrazide]	95.0641	107.975	100.183						
Nc1c(C(=O)NCc2ccc(F)cc2F)c(=O)n(O)c2nc(N3CCOCC3)ccc12 [XZ413, 4-amino-N-(2,4-difluorobenzyl)-1-hydroxy-7-morpholino-2-oxo-1,2-dihydro-1,8-naphthyridine-3-carboxamide]	103.686	92.8191	81.1252						
Cc1c2c(c(O)c(=O)n1Cc1ccc(F)c(Cl)c1)C(=O)N(C)C2=O [XZ242, 5-(3-chloro-4-fluorobenzyl)-7-hydroxy-2,4-dimethyl-1H-pyrrolo[3,4-c]pyridine-1,3,6(2H,5H)-trione]	115.41	99.061	100.661						
CN(C)S(=O)(=O)c1cc(O)c(O)c2c1CN(Cc1ccc(F)c(Cl)c1)C2=O [XZ259, 2-(3-chloro-4-fluorobenzyl)-6,7-dihydroxy-N,N-dimethyl-1-oxoisoindoline-4-sulfonamide]	63.0889	67.971	68.9907						
CC(C)NC(=O)/C=C/c1cnc2c(c1)c(N)c(C(=O)NCc1ccc(F)cc1F)c(=O)n2O [XZ452, (E)-4-amino-N-(2,4-difluorobenzyl)-1-hydroxy-6-(3-(isopropylamino)-3-oxoprop-1-en-1-yl)-2-oxo-1,2-dihydro-1,8-naphthyridine-3-carboxamide]	11.3751	23.2017	17.2877	174	162	229	182 ± 44.7		
COC(=O)c1c(N)c2cccnc2n(O)c1=O [XZ462, methyl 4-amino-1-hydroxy-2-oxo-1,2-dihydro-1,8-naphthyridine-3-carboxylate]	111.483	96.7056	116.696						
COC(=O)CCc1c2c(c(O)c(=O)n1C(C)C)C(=O)N(Cc1ccc(F)c(Cl)c1)C2=O [XZ220, methyl 3-(2-(3-chloro-4-fluorobenzyl)-7-hydroxy-5-isopropyl-1,3,6-trioxo-2,3,5,6-tetrahydro-1H-pyrrolo[3,4-c]pyridin-4-yl)propanoate]	93.628	97.195	85.9754						
Nc1ccc(-c2ccc(Nc3cc(=O)n(O)c4ncccc34)cc2)cc1 [XZ460, 4-((4'-amino-[1,1'-biphenyl]-4-yl)amino)-1-hydroxy-1,8-naphthyridin-2(1H)-one]	91.7662	81.7265	81.1342						
COC(=O)c1c(Nc2ccc(-c3ccc(N)cc3)cc2)c2cccnc2n(O)c1=O [XZ456, methyl 4-((4'-amino-[1,1'-biphenyl]-4-yl)amino)-1-hydroxy-2-oxo-1,2-dihydro-1,8-naphthyridine-3-carboxylate]	112.032	94.791	89.3626						
O=C(O)/C(O)=C/C(=O)c1cc(OCc2ccccc2)cc(OCc2ccccc2)c1 [XZ320, (Z)-4-(3,5-bis(benzyloxy)phenyl)-2-hydroxy-4-oxobut-2-enoic acid, reference compound]	35.3455	62.3815	55.2426						
Cc1c2c(c(O)c(=O)n1C)C(=O)N(Cc1ccc(F)c(Cl)c1)C2=O [XZ202, 2-(3-chloro-4-fluorobenzyl)-7-hydroxy-4,5-dimethyl-1H-pyrrolo[3,4-c]pyridine-1,3,6(2H,5H)-trione]	98.3269	98.0594	97.9688						
Nc1c(C(=O)NCc2ccc(F)cc2F)c(=O)n(O)c2ncc(CCCOCCO)cc12 [XZ432, 4-amino-N-(2,4-difluorobenzyl)-1-hydroxy-6-(3-(2-hydroxyethoxy)propyl)-2-oxo-1,2-dihydro-1,8-naphthyridine-3-carboxamide]	18.6132	21.9961	19.5014	177	156	173	168 ± 17		
O=C(NCc1ccc(F)cc1F)c1c(NCCO)c2cccnc2n(O)c1=O [XZ378, N-(2,4-difluorobenzyl)-1-hydroxy-4-((2-hydroxyethyl)amino)-2-oxo-1,2-dihydro-1,8-naphthyridine-3-carboxamide]	14.3053	44.0798	36.7031	311	474	392	397 ± 64	no significant improvement over RAL	outperformed RAL
O=C(NN1Cc2ccc(O)c(O)c2C1=O)c1cccc(O)c1O [XZ49, N-(6,7-dihydroxy-1-oxoisoindolin-2-yl)-2,3-dihydroxybenzamide]	94.3672	88.3747	109.808						
O=C(NNC(=O)c1cccc(O)c1O)c1cccc(O)c1O [XZ15, N'-(2,3-dihydroxybenzoyl)-2,3-dihydroxybenzohydrazide]	99.084	89.5316	92.2753						
CCN1CCn2c(c3c(c(O)c2=O)C(=O)N(Cc2ccc(F)c(Cl)c2)C3=O)C1=O [XZ256, 9-(3-chloro-4-fluorobenzyl)-2-ethyl-7-hydroxy-3,4-dihydropyrrolo[3',4':3,4]pyrido[1,2-a]pyrazine-1,6,8,10(2H,9H)-tetraone]	112.467	93.5244	114.376						
[N-]=[N+]=NCc1cccc(C(=O)/C=C(\O)C(=O)O)c1 [XZ319, (Z)-4-(3-(azidomethyl)phenyl)-2-hydroxy-4-oxobut-2-enoic acid]	88.4055	92.5212	100.53						
O=C1c2ccc(O)c(O)c2C(=O)N1Cc1ccc(F)c(Cl)c1 [XZ89, 2-(3-chloro-4-fluorobenzyl)-4,5-dihydroxyisoindoline-1,3-dione]	87.9286	85.883	98.5818						
